Measured values from ChEMBL document CHEMBL1153689, “Conversion of the phytoestrogen coumestrol into a selective estrogen receptor modulator (SERM) by attachment of an amine-containing sidechain” (Bioorg Med Chem Lett, 1996).

Tested on: MCF7
Assay: Inhibition of MCF-7 cell proliferation
Type: functional, cell-based
Settings: Homo sapiens

EC50: 40 nM
Compound: Oc1ccc2c(c1)OC(c1ccc(OCCN3CCCCC3)cc1)c1c-2oc2cc(O)ccc12 (stereo unspecified)
